Test results from patent US10113185B2, “Utilization of phosphoketolase in the production of mevalonate, isoprenoid precursors, and isoprene” (Danisco US Inc., priority 2011, dated 2018).
Like-named read-outs stand apart in the source and are kept apart here.

Key:
[1] = test system: Bifidobacterium breve phosphoketolase; details: cited from earlier work
[2] = test system: Lactobacillus plantarum phosphoketolase; details: cited from earlier work
[3] = target: T1, Bifidobacterium longum phosphoketolase (B. longum PKL), SEQ ID NO: 4 (encoded by SEQ ID NO:3) (Bifidobacterium longum, UniProt A0ACD7USP0); details: 37° C., pH 6, saturating Pi (20 mM), enzyme 0.25 μM, time measured 60
T1 sequence (A0ACD7USP0 1-825): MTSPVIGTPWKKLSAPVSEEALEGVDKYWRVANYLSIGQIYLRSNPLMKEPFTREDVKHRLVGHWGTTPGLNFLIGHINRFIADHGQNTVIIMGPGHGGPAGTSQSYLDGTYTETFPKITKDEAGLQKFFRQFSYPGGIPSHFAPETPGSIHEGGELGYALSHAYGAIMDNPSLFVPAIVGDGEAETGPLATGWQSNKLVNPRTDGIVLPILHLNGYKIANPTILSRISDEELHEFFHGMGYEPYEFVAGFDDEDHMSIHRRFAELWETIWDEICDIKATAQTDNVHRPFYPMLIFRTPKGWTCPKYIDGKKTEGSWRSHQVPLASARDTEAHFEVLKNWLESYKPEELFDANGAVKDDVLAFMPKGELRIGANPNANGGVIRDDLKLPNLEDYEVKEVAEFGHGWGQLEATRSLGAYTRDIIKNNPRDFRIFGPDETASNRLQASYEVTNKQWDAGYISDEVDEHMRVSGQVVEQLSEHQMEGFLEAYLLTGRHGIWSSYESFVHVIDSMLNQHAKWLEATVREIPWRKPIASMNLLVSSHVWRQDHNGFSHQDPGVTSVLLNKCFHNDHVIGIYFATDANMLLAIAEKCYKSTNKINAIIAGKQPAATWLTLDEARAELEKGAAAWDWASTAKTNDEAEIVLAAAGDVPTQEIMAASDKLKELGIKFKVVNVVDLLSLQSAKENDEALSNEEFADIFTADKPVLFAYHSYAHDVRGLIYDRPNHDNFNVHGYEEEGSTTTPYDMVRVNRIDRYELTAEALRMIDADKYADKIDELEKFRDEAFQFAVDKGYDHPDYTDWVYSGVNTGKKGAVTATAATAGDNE

[4] = test system: Bifidobacterium longum BB536 phosphoketolase; details: Grill et al. (1995), cited from earlier work
[5] = test system: Bifidobacterium dentium ATCC27534 phosphoketolase; details: Grill et al. (1995), cited from earlier work
[6] = test system: Bifidobacterium globosum ATCC 25864 phosphoketolase; details: Grill et al. (1995), cited from earlier work
[7] = test system: Bifidobacterium lactis phosphoketolase; details: Meile et al. (2001), cited from earlier work
[8] = test system: Lactobacillus paraplantarum C7 phosphoketolase; details: Jeong et al. (2007), cited from earlier work
[9] = test system: Enterococcus gallinarum phosphoketolase (E. gallinarum PKL), encoded by SEQ ID NO:17; assay: Kinetic analysis of purified E. gallinarum phosphoketolase (ferric hydroxamate assay, AcP formation); assay type: biochemical
Procedure: The amino acid sequence of Enterococcus gallinarum PKL was obtained from GeneBank and was processed in GeneArt optimization software for optimized expression in E. coli. Two base pairs were added in front of the PKL gene to form a NcoI site and a Sad site was inserted just after the stop codon. The synthesized PKL gene was cloned into GeneArt kanamycin-resistant cloning plasmid. The E. gallinarum PKL gene (SEQ ID NO:17) was then subcloned into a BspHI/SacI-digested pTrcHis2B vector (Life Technologies, Carlsbad, Calif.) to form plasmid pCMP1321.
Cells were grown in LB medium with 50 ug/ml carbenecillin at 37 C prior to induction. […] For purification, E. gallinarum PKL cell pellets were resuspended in 50 mM MES pH 6.0, 50 mM NaCL, 0.5 mM AEBSF, 0.1 mg/ml DNaseI. […] Clarified lysate containing PKL from E. gallinarum was loaded onto a DEAE HiTrap FF column equilibrated in 50 mM MES, 50 mM NaCl, pH 6 and eluted with a gradient to 50 mM MES, 1M NaCl, pH 6. The resulting fractions were analyzed by SDS-PAGE. Fractions containing PKL were pooled and desalted using a G25 desalting column into 50 mM MES, 50 mM NaCL pH 6.0. Further purification was achieved using a MonoQ 10/100 GL column equilibrated in 50 mM MES, 50 mM NaCL, pH 6 with a salt gradient to 1M NaCl. Fractions containing PKL were pooled and analyzed by SDS PAGE, quantitation was achieved using A280 a molar extinction coefficient of 136980 determined by Vector NTI.
Time points were taken at various intervals. […] An AcP standard curve ranging between 12.5 and 0.2 mM was generated for quantitation.

[10] = test system: Leuconostoc oenos phosphoketolase; details: Veiga-da-Cunha et al. (1993), cited from earlier work
[11] = test system: Bifidobacterium animalis ATCC 25527 phosphoketolase; details: Grill et al. (1995), cited from earlier work
[12] = substrate: O=P(O)(O)OC[C@H]1OC(O)(CO)[C@@H](O)[C@@H]1O; assay: purified protein, by the assay type; details: other: 37° C., pH 6, saturating Pi (20 mM), enzyme 0.25 μM, time measured 60
[13] = 37° C., pH 6, saturating Pi (20 mM), enzyme 0.5 μM, time measured 30

Molecule: O=P(O)(O)O [Pi, inorganic phosphate]
- Km ([1]; for F6P as a substrate, read-out: KmPi): 1.2 mM
- Km ([2]; for F6P as a substrate, read-out: Km(Pi)): 2.9 mM
- Km ([2]; for X5P as a substrate, read-out: Km(Pi)): 7.5 mM

Molecule: O=P(O)(O)OC[C@H]1OC(O)(CO)[C@@H](O)[C@@H]1O (stereo partly drawn) [F6P, fructose 6-phosphate]
- kcat [3]: 16.6 s⁻¹
- kcat (F6P) [4]: kcat (F6P) = 39 s^−1
- Km ([4]; read-out: Km(F6P)): 26 mM
- kcat (F6P) [5]: kcat (F6P) = 33 s^−1
- Km ([5]; read-out: Km(F6P)): 23 mM
- kcat (F6P) [6]: kcat (F6P) = 40 s^−1
- Km ([6]; read-out: Km(F6P)): 12.5 mM
- kcat (F6P) ([1]; Suzuki et al. (2010)): kcat (F6P) = 22.4 s^−1
- Km ([1]; read-out: Km(F6P), Suzuki et al. (2010)): 9.7 mM
- kcat (F6P) [7]: kcat(F6P) = 8 s^−1
- Km ([7]; read-out: Km(F6P)): 10 mM
- kcat (F6P) ([2]; Yevenes and Frey (2008)): kcat(F6P) = 2.7 s^−1
- Km ([2]; read-out: Km(F6P), Yevenes and Frey (2008)): 24 mM
- kcat (F6P) [8]: kcat(F6P) = 738 s^−1
- Km ([8]; read-out: Km(F6P)): 5.1 mM
- Km [9, 13]: 2.86 mM
- Vmax [9, 13]: 0.71 µM/s
- kcat [9, 13]: 1.4 s⁻¹
- kcat ([9]; saturating Pi): 1.4 s⁻¹
- kcat (F6P) [10]: kcat (F6P) = 0.2 s−1
- Km ([10]; read-out: Km(F6P)): 22 mM
- kcat (F6P) [11]: kcat (F6P) = 33 s^−1
- Km ([11]; read-out: Km(F6P)): 11.5 mM

Molecule: O=C(CO)[C@@H](O)[C@H](O)COP(=O)(O)O [X5P, xylulose 5-phosphate]
- kcat(X5P) ([1]; Suzuki et al. (2010)): kcat (X5P) = 44.8 s^−1
- kcat(X5P) [7]: kcat(X5P) = 42 s^−1
- Km ([7]; read-out: Km(X5P)): 55 mM
- kcat(X5P) ([2]; Yevenes and Frey (2008)): kcat(X5P) = 6.1 s^−1
- Km ([2]; Yevenes and Frey (2008), read-out: Km(X5P)): 3.6 mM
- Km [9, 13]: 5.81 mM
- Vmax [9, 13]: 2.18 µM/s
- kcat [9, 13]: 4.4 s⁻¹
- kcat ([9]; saturating Pi): 4.4 s⁻¹
- kcat(X5P) [10]: kcat (X5P) = 3.5 s^−1
- Km ([10]; read-out: Km(X5P)): 1.6 mM

Molecule: O=C[C@H](O)[C@H](O)COP(=O)(O)O [E4P, erythrose 4-phosphate]
- Ki ([2]; for F6P as a substrate, read-out: Kis^E4P): 8 mM
- Ki ([2]; for F6P as a substrate, read-out: Kll^E4P): 4.4 mM

B1: Bifidobacterium longum phosphoketolase (B. longum PKL), SEQ ID NO: 4 (encoded by SEQ ID NO:3) (Bifidobacterium longum subsp. infantis ATCC 15697 = JCM 1222 = … (protein)
chain: MTSPVIGTPWKKLSAPVSEEALEGVDKYWRVANYLSIGQIYLRSNPLMKEPFTREDVKHRLVGHWGTTPGLNFLIGHINRFIADHGQNTVIIMGPGHGGPAGTSQSYLDGTYTETFPKITKDEAGLQKFFRQFSYPGGIPSHFAPETPGSIHEGGELGYALSHAYGAIMDNPSLFVPAIVGDGEAETGPLATGWQSNKLVNPRTDGIVLPILHLNGYKIANPTILSRISDEELHEFFHGMGYEPYEFVAGFDDEDHMSIHRRFAELWETIWDEICDIKATAQTDNVHRPFYPMLIFRTPKGWTCPKYIDGKKTEGSWRSHQVPLASARDTEAHFEVLKNWLESYKPEELFDANGAVKDDVLAFMPKGELRIGANPNANGGVIRDDLKLPNLEDYEVKEVAEFGHGWGQLEATRSLGAYTRDIIKNNPRDFRIFGPDETASNRLQASYEVTNKQWDAGYISDEVDEHMRVSGQVVEQLSEHQMEGFLEAYLLTGRHGIWSSYESFVHVIDSMLNQHAKWLEATVREIPWRKPIASMNLLVSSHVWRQDHNGFSHQDPGVTSVLLNKCFHNDHVIGIYFATDANMLLAIAEKCYKSTNKINAIIAGKQPAATWLTLDEARAELEKGAAAWDWASTAKTNDEAEIVLAAAGDVPTQEIMAASDKLKELGIKFKVVNVVDLLSLQSAKENDEALSNEEFADIFTADKPVLFAYHSYAHDVRGLIYDRPNHDNFNVHGYEEEGSTTTPYDMVRVNRIDRYELTAEALRMIDADKYADKIDELEKFRDEAFQFAVDKGYDHPDYTDWVYSGVNTGKKGAVTATAATAGDNE
- Km [12]: 21.16 mM
- Vmax [12]: 265 µM/min
- kcat [12]: 16.6 s⁻¹
